Results: patent US5317021A, “3-mercapto-glutamic acid derivatives” (ONO Pharmaceutical Co., Ltd., priority 1988, dated 1994)
Structures can show the parent of a compound that is named as a salt.

Assays:
[1] = target: T1, enkephalinase (Mus musculus, UniProt Q61391); experiment: Inhibitory effect on enkephalinase; format: biochemical, ddY male mice; settings: substrate Suc-Ala-Ala-Phe-AMC 10^-4 M, 37° C., 60 minutes, mouse striata enzyme
T1 construct: striata obtained from ddY male mice; from tissue; host or cells: striata of ddY male mice (washed 20000 g membrane pellet, not purified)
T1 sequence (Q61391 1-750): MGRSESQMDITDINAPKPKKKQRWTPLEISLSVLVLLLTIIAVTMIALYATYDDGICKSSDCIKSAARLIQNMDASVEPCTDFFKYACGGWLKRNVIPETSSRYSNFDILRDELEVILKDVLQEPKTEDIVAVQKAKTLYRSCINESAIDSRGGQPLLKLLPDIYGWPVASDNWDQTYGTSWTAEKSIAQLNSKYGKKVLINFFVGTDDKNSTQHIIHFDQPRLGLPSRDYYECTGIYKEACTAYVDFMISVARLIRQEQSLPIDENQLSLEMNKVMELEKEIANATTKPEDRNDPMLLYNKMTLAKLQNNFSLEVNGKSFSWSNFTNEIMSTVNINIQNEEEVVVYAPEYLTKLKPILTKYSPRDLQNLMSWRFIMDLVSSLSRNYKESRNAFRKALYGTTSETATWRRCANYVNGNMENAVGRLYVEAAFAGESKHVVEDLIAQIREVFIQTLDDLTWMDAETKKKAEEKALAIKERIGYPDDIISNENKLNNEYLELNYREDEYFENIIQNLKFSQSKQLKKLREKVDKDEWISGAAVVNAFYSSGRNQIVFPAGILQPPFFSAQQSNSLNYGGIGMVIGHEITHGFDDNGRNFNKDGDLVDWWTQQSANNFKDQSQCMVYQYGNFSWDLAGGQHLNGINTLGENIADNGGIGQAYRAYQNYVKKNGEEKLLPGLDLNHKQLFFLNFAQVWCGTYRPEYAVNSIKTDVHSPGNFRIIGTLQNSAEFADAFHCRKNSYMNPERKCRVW
Protocol: That is, to striata obtained from ddY male mice (weighing 28~30 g), Tris hydrochloric acid buffer solution (referred to "Tris buffer" hereafter) was added. The mixture was homogenised and centrifuged (1000 g×5 minites). The supernatant obtained was further centrifuged (20000 g×1 minutes). The resulting pellet was washed with cold Tris buffer and resuspended in a fresh Tris buffer to use as enzyme source of enkephalinase.
Incubation at 37° C. for 60 minutes was started by adding thereto […] of enzyme solution (×30 dilution of the above enzyme source) and 50 μl of a substrate solution containing succinyl-alanyl-alanyl-phenylalanyl (7-amido-4-methyl)coumarin (i.e. Suc-Ala-Ala-Phe-AMC, final concentration: 10^-4 M) dissolved in 50 mM HEPES/NaOH buffer (pH 7.4). The reaction was stopped by the addition of thiorphan (10^-6 M) and by heating the samples at 95° C. for 15 minutes. […] Blanks values were obtained by the same procedure as above described by using thiorphan (10^-6 M) instead of the test compound.

[2] = system: bradykinin-induced biting-like response; experiment: Inhibitory effect on bradykinin-induced biting-like response; format: in vivo, male Spraque-Dawley rats; settings: for Number of rats which did not show the biting-like response, 10 minutes after i.p. / Number of rats which did not show the biting-like response, 40 minutes after i.p. / Number of rats which did not show the biting-like response, 70 minutes after i.p. / Number of rats which did not show the biting-like response, 100 minutes after i.p.: 10 mg/kg i.p., number of rats 5 (Example 1), 8 (Example 12(5)); for Number of rats which did not show the biting-like response, 30 minutes after p.o. / Number of rats which did not show the biting-like response, 60 minutes after p.o. / Number of rats which did not show the biting-like response, 90 minutes after p.o. / Number of rats which did not show the biting-like response, 120 minutes after p.o.: 100 mg/kg p.o., number of rats 8
Protocol: The experiment was carried out according to the method as described in Journal of Pharmacological Methods, Z, 271 (1982). That is, male Spraque-Dawley rats (weighing 200~300 g) were used. Implantation of the bradykinin (0.63~1.25 μg in 0.5~1.0 μl of distilled water) - filled cannula onto the tooth pulp and the fixation of it on the lower incisor surfaces were carried out under ethyl ether anesthesia. A micro-application of bradykinin onto the tooth pulp produced biting-like response and some other aversive behaviors such as jumping, struggling, rubbing, scratching, escape, head-jerk and body-jerk within 1 minute.
The test compounds suspended in 0.5% carboxymethyl cellulose solution were administered either intraperitoneally or orally. After regular intervals bradykinin was administered.

[3] = acute toxicity (LD50), intraperitoneal injection in mice; settings: mouse, in vivo, ip

Compound | IC50 [1] [nM] | further results
COc1ccc(NC(=O)[C@H](CC(=O)O)NC(=O)C(CS)Cc2ccccc2)cc1 (single isomer, unassigned) [8(4), N-(3-mercapto-2RS-benzylpropionyl)-α-(4-methoxyanilino)-L-aspartic acid] | 50 | 
O=C(O)CC[C@H](NC(=O)C(CS)CC1CCCCC1)C(=O)Nc1ccccc1 (stereo partly drawn) [1(1), N-(3-mercapto-2RS-cyclohexylmethyl-propionyl)-α-anilino-L-glutamic acid] | 400 | 
COc1ccc(CC(CS)C(=O)N[C@@H](CCC(=O)O)C(=O)Nc2ccccc2)cc1 (stereo partly drawn) [1(2), N-[3-mercapto-2RS-(4-methoxybenzyl)-propionyl]-α-anilino-L-glutamic acid] | 51 | 
Cc1ccc(CC(CS)C(=O)N[C@@H](CCC(=O)O)C(=O)Nc2ccccc2)cc1 (stereo partly drawn) [1(3), N-[3-mercapto-2RS-(4-methylbenzyl)-propionyl]-α-anilino-L-glutamic acid] | 71 | 
O=C(O)CC[C@H](NC(=O)C(CS)Cc1ccccc1)C(=O)Nc1cccc2ccccc12 (stereo partly drawn) [2(7), N-(3-mercapto-2RS-benzylpropionyl)-L-glutamic acid α-(1-naphthyl)amide] | 350 | 
O=C(O)CC[C@H](NC(=O)C(CS)Cc1ccccc1)C(=O)Nc1nc2ccccc2s1 (stereo partly drawn) [2(10), N-(3-mercapto-2RS-benzylpropionyl)-L-glutamic acid α-(2-benzthiazolyl) amide] | 44 | 
O=C(O)CC[C@H](NC(=O)C(CS)Cc1ccccc1)C(=O)Nc1ccc(C(=O)O)cc1 (stereo partly drawn) [3(2), N-(3-mercapto-2RS-benzylpropionyl)-α-(4-carboxyanilino)-L-glutamic acid] | 3.6 | 
O=C(O)CC[C@H](NC(=O)C(CS)Cc1ccccc1)C(=O)Nc1ccc(Cl)cn1 (stereo partly drawn) [3(4), N-(3-mercapto-2RS-benzylpropionyl)-L-glutamic acid α-(5-chloropyridin-2-yl)amide] | 35 | 
NS(=O)(=O)c1ccc(NC(=O)[C@H](CCC(=O)O)NC(=O)C(CS)Cc2ccccc2)cc1 (stereo partly drawn) [3(8), N-(3-mercapto-2RS-benzylpropionyl)-α-(4-sulfamoylanilino)-L-glutamic acid] | 23 | 
O=C(O)CC[C@H](NC(=O)C(CS)Cc1ccccc1)C(=O)Nc1cnccn1 (stereo partly drawn) [3(9), N-(3-mercapto-2RS-benzylpropionyl)-L-glutamic acid α-(pyrazin-2-yl) amide] | 190 | 
O=C(C[C@H](NC(=O)C(CS)Cc1ccccc1)C(=O)O)Nc1ccc(I)cc1 (stereo partly drawn) [12(5), N-(3-mercapto-2RS-benzylpropionyl)-β-(4-iodoanilino)-L-aspartic acid] | 2.8 | Number of rats which did not show the biting-like response, 10 minutes after i.p. [2]: 4; Number of rats which did not show the biting-like response, 40 minutes after i.p. [2]: 2; Number of rats which did not show the biting-like response, 70 minutes after i.p. [2]: 1; Number of rats which did not show the biting-like response, 100 minutes after i.p. [2]: 0
CN(C)c1ccc(NC(=O)C[C@H](NC(=O)C(CS)Cc2ccccc2)C(=O)O)cc1 (stereo partly drawn) [12(7), N-(3-mercapto-2RS-benzylpropionyl)-β-[4-(N,N-dimethylamino)anilino]-L-aspartic acid] | 24 | 
O=C(C[C@H](NC(=O)C(CS)Cc1ccccc1)C(=O)O)Nc1ccc(C(F)(F)F)cc1 (stereo partly drawn) [12(8), N-(3-mercapto-2RS-benzylpropionyl)-β-(4-trifluoromethylanilino)-L-aspartic acid] | 21 | 
O=C(O)CC[C@H](NC(=O)[C@@H](CSC(=O)C(c1ccccc1)c1ccccc1)Cc1ccccc1)C(=O)Nc1ccccc1 [13(5), N-(3-diphenylacetylthio-2S-benzylpropionyl)-α-anilino-L-glutamic acid] |  | Number of rats which did not show the biting-like response, 30 minutes after p.o. [2]: 1; Number of rats which did not show the biting-like response, 60 minutes after p.o. [2]: 7; Number of rats which did not show the biting-like response, 90 minutes after p.o. [2]: 1; Number of rats which did not show the biting-like response, 120 minutes after p.o. [2]: 1
O=C(O)CC[C@H](NC(=O)C(CS)Cc1ccccc1)C(=O)Nc1ccccc1 (stereo partly drawn) [Example 1, N-(3-mercapto-2RS-benzylpropionyl)-α-anilino-L-glutamic acid] | 21 | Number of rats which did not show the biting-like response, 10 minutes after i.p. [2]: 4; Number of rats which did not show the biting-like response, 40 minutes after i.p. [2]: 4; Number of rats which did not show the biting-like response, 70 minutes after i.p. [2]: 3; Number of rats which did not show the biting-like response, 100 minutes after i.p. [2]: 1
COC(=O)C[C@H](NC(=O)C(CS)Cc1ccccc1)C(=O)Nc1ccc2c(c1)C(c1ccccc1)=NCCN2C (stereo partly drawn) [Example 4, N-(3-mercapto-2RS-benzylpropionyl)-L-aspartic acid α-(2,3-dihydro-1-methyl-5-phenyl-1H-1,4-benzodiazepin-7yl)amide β-methyl ester] | 150 | 
O=C(CC[C@H](NC(=O)C(CS)Cc1ccccc1)C(=O)O)Nc1ccccc1 (stereo partly drawn) [Example 11, N-(3-mercapto-2RS-benzylpropionyl)-γ-anilino-L-glutamic acid α-sodium salt] | 68 | 
O=C(C[C@H](NC(=O)C(CS)Cc1ccccc1)C(=O)O)Nc1ccccc1 (stereo partly drawn) [Example 12, N-(3-mercapto-2RS-benzylpropionyl)-β-anilino-L-aspartic acid and the corresponding α-sodium salt] | 13 | 
O=C(O)CC[C@H](NC(=O)[C@@H](CSC1OC(=O)c2ccccc21)Cc1ccccc1)C(=O)Nc1ccccc1 (stereo partly drawn) [Example 16, N-[3-(phthalid-3yl)thio-2S-benzylpropionyl]-α-anilino-L-glutamic acid] |  | LD50 [3]: 500 to 1000 mg/kg; Number of rats which did not show the biting-like response, 30 minutes after p.o. [2]: 3; Number of rats which did not show the biting-like response, 60 minutes after p.o. [2]: 6; Number of rats which did not show the biting-like response, 90 minutes after p.o. [2]: 2; Number of rats which did not show the biting-like response, 120 minutes after p.o. [2]: 0
